Reference: patent US8178133B2, “Magnesium compositions and uses thereof” (Magceutics, Inc., priority 2007, dated 2012)

How the values were obtained:
[1] = system: young and aging/aged rats; experiment: Elevated T-maze test, spatial working memory; assay type: in vivo, Sprague Dawley (SD) rats; settings: MgCl2 diet
Method: Twenty 2-month old, male Sprague Dawley (SD) rats were housed in a temperature-controlled room (22° C. to 25° C.) with a dark period from 08:00 pm to 08:00 am daily. […] Over 7 days before the training and trial period began, each rat was handled and habituated to the maze and to Kellogg's Froot Loop cereal.
Each rat underwent a test of one trial, followed by an interval of 10-minutes, followed by another trial, and so on, for a total of 6 trials in one day. In each trial, each rat went through a sample run in the maze, followed by an interval of 15 seconds, followed by a choice run in the maze. In the sample run, the subject rat was forced to go to the left or to the right by the presence of a block, according to a pseudorandom sequence (with an equal number of left turns and right turns, and no more than two consecutive turns in the same direction). As a reward, Froot Loop cereal was available in the food well at the end of the run, regardless of the direction that was taken by virtue of the block. In the choice run, the block that had been present in the preceding sample run was removed, and the rat was allowed to choose to go to the left or to the right. […]
Three groups of animals (young, aging, and magnesium-treated aging rats) were used. […] Spatial working memory was assessed using a T-maze non-matching-to-place task. […] Spatial working memory was first assessed on an elevated T-maze. […]

[2] = system: aging rats; experiment: Novel object recognition test in rats; assay type: in vivo, Sprague-Dawley rats
[3] = system: mice genetically altered to present symptoms of Alzheimer's disease (AD); experiment: Modified Morris water maze test in AD mice; assay type: in vivo; settings: AD mice aged 13 months
Method: Another group, the control group, of 10 mice that were genetically altered to present symptoms of AD were fed a Control Diet, a diet of normal solid food and water, for 30 days.
The pool used was a pool of water in a circular metal tank (150 cm in diameter and 50 cm in depth) having a water height of 30 cm and a water temperature that was maintained at ˜22° C. The pool was placed in a moderately lit area and surrounded by a black curtain. An acrylic platform (15 cm in diameter) was placed 2 cm below the surface of the water in the middle of one quadrant of the pool, equidistant from the center and the edge of the pool. Outside the pool, a cue was placed so as to be visible to a mouse in the maze, allowing a mouse to use it as a landmark for spatial orientation. The cue remained unchanged throughout the test period.
On the first day of the training and testing period, the water in the pool was transparent, such that the platform was visible. Each mouse was trained to swim towards the platform and to stand on the platform so as not to be submerged in the pool. […] The amount of time the mouse took to find the platform, referred to as “escape latency,” was recorded for each trial.
On the second day of the training and testing period, a small quantity of milk was added to the water in the pool, such that the pool was opaque and the platform was no longer visible. […]

[4] = system: young (9-month old) and aged (25-month old) rats; settings: food containing 2% magnesium oxide for 8 days; cited from earlier work

## [Cl-].[Cl-].[Mg+2] [MgCl2]
[1]; 2 and 5 min delays
  spatial working memory, choice accuracy with increased delay: significantly enhanced the performance of the aging rats
[1]; 15 sec delay
  percentage of correct choices, learning of non-matching-to-place task: performed significantly better from their first trials
[2]; aging rats 12-14 months, 6 mg/kg MgCl2 from 8 months of age, single training, 10 minute retention interval
  novel object exploration preference: preferentially explored the novel object to the same extent as young rats
[2]; aging rats, single training, 24 hours retention interval
  novel object exploration preference: lose there ability to distinguish novel versus familiar objects
[2]; aging rats, two training sessions (spaced training), 24-hour retention interval
  novel object exploration preference: retained a high level of preference

## COc1cc2c(cc1OC)C(=O)C(CC1CCN(Cc3ccccc3)CC1)C2 (centres unmarked) [aricept]
[3]
  effect on learning capacity, comparison with anti-AD drugs: both being better at reducing the effects of AD on learning capacity than aricept

## [O]=[Mg] [magnesium oxide]
[4]
  cognitive function: some sign of improvement of cognitive function

## CC12CC3CC(C)(C1)CC(N)(C3)C2 [memantine]
[3]
  effect on learning capacity, comparison with anti-AD drugs: better at reducing the effects of AD on learning capacity than aricept
